pIC50: −log10 of the molar value.
Tests used:
[1] = target: T1, Autotaxin (Homo sapiens, UniProt Q13822); assay: Inhibition of ATX (unknown origin) using FS-3 as substrate preincubated with compound for 10 mins followed by substrate addition measured for 30 mins by fluorometric kinetic assay
[2] = test system: Huh-7; assay: Anti-steatosis activity against oleic acid induced human Huh-7 cells assessed as reduction of lipid accumulation at 1 to 10 uM incubated for 24 hrs by […] based fluorescence microscopic analysis; type: functional; design: scale not given: the % may be the effect or the level left; details: dose 1-10 µM
[3] = Inhibition of collagen formation in oleic and palmitic acid induced human Huh-7 cells cocultured with human LX2 cells at 1 to 10 uM incubated for […] by Sirius Red staining based analysis; type: functional; details: dose 1-10 µM
[4] = test system: LX-2; assay: Inhibition of cell migration in TGF-beta induced human LX2 cells by measuring cell uncovered area at 0.3 to 3 uM incubated for 24 hrs by wound healing assay; type: functional; details: dose 0.3-3 µM
[5] = target: T1, Autotaxin; assay: Inhibition of ATX (unknown origin) using FS-3 as substrate by measuring fold change preincubated with compound for 10 mins followed by substrate addition measured for 30 mins by fluorometric kinetic assay compared to 3-(2-(benzyloxy)benzylidene)-1-(3-chlorophenyl)pyrrolidine-2,5-dione; details: time 40.0 min

| SMILES | pIC50 [1] | further results |
| --- | --- | --- |
| CCCOC(=O)c1ccc(COc2ccccc2/C=C2/CC(=O)N(c3cccc(Cl)c3)C2=O)cc1 | 6.49 | – |
| NC(=O)c1ccc(COc2ccccc2/C=C2/CC(=O)N(c3cccc(Cl)c3)C2=O)cc1 | 6.62 | – |
| CC(C)OC(=O)c1ccc(COc2ccccc2/C=C2/CC(=O)N(c3cccc(Cl)c3)C2=O)cc1 | 6.57 | – |
| CN(C)C(=O)c1ccc(COc2ccccc2/C=C2/CC(=O)N(c3cccc(Cl)c3)C2=O)cc1 | < 5.00 | – |
| COC(=O)c1ccc(COc2ccccc2/C=C2\CC(=O)N(c3cccc(Cl)c3)C2=O)cc1 | 6.89 | Activity [2]: 42%; inhibition (INH) [3]: 35%; inhibition (INH) [4]: 23% |
| O=C1C/C(=C/c2ccccc2OCc2ccccc2)C(=O)N1c1cccc(Cl)c1 | 6.01 | – |
| N#Cc1ccc(COc2ccccc2/C=C2/CC(=O)N(c3cccc(Cl)c3)C2=O)cc1 | 6.55 | fold change (FC) [5]: 3.5 |
| O=C(O)c1ccc(COc2ccccc2/C=C2/CC(=O)N(c3cccc(Cl)c3)C2=O)cc1 | 5.03 | – |
| O=C(Oc1ccccc1)c1ccc(COc2ccccc2/C=C2/CC(=O)N(c3cccc(Cl)c3)C2=O)cc1 | 5.69 | – |
| O=C(Oc1cccc2ccccc12)c1ccc(COc2ccccc2/C=C2/CC(=O)N(c3cccc(Cl)c3)C2=O)cc1 | < 5.00 | – |

From ChEMBL document CHEMBL6074663, “Design, synthesis and evaluation of 3-(2-(substituted benzyloxy)benzylidene) pyrrolidine-2,5-dione derivatives for novel ATX inhibitor” (Bioorg Med Chem Lett, 2024)
